Measured values reported in US20240067617A1 (Albireo AB, priority 2022, published 2024).

What was measured:
hLBAT = biological target: T1, hLBAT (Homo sapiens, UniProt Q14973); experiment: LBAT (h/m) assay: 3H-taurocholic acid uptake in human LBAT-overexpressing cells; type: cell-based; settings: 0.3 μM 3H-taurocholic acid + 7.5 μM cold taurocholic acid, 20 minutes at 37° C.
T1 construct: expressed in transfected cells; kept under Geneticin selection
T1 sequence (Q14973 1-349): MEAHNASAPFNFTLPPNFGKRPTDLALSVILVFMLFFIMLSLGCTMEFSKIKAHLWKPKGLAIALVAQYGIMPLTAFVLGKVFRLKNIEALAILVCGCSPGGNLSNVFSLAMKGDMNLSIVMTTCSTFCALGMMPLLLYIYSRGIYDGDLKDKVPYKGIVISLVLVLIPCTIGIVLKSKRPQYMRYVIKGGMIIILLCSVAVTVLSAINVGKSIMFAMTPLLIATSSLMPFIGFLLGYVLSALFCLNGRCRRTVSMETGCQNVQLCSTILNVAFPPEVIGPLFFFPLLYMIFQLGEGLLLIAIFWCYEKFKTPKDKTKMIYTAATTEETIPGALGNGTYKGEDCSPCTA
Summary of the method: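 Human or mouse LBAT-overexpressing cells given 10-point inhibitor series with 0.3 μM 3H-taurocholic acid plus cold taurocholic acid (7.5 μM human, 25 μM mouse), 0.2% DMSO, for 20 min at 37° C. Stopped on ice, washed with 1 mM unlabelled taurocholic acid; uptake measured by scintillation counting.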

hIBAT = biological target: T2, hIBAT (Homo sapiens, UniProt Q12908); experiment: IBAT (h/m) assay: 3H-taurocholic acid uptake in human IBAT-overexpressing cells; type: cell-based; settings: 0.25 μM 3H-taurocholic acid + 5 μM cold taurocholic acid, 20 minutes at 37° C., highest test concentration 10 μM
T2 construct: expressed in transfected cells; kept under Puromycin selection
T2 sequence (Q12908 1-348): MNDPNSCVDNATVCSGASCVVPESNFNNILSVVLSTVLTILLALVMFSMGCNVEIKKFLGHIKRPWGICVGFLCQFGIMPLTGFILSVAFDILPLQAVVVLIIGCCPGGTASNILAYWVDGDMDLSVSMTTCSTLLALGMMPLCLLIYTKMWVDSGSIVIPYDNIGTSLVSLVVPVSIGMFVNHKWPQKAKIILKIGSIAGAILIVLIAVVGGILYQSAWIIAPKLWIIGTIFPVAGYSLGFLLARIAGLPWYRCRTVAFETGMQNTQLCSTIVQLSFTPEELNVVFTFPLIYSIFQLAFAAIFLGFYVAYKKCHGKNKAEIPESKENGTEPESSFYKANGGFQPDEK
Summary of the method: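 Human or mouse IBAT-overexpressing cells cultured 48 h, then exposed for 20 min at 37 °C to compounds (top 10 μM, 3-fold, 10 points; 0.2% DMSO) with 0.25 μM 3H-taurocholic acid plus 5 μM cold taurocholic acid. Uptake stopped on ice, cells washed with cold 1 mM taurocholic acid, radioactivity counted by scintillation.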

Structure (SMILES) | IC50 (hLBAT) | IC50 (hIBAT)
CCCCC1(CCCC)CN(c2ccccc2)c2cc(OC)c(CSC(C)(C)C(=O)O)cc2S(=O)(=O)C1 [Example 43, 2-(((3,3-dibutyl-7-methoxy-1,1-dioxido-5-phenyl-2,3,4,5-tetrahydro-1,5-benzothiazepin-8-yl)methyl)thio)-2-methylpropanoic acid] | 251 nM | 861 nM
CCCCC1(CC)CN(c2ccccc2)c2cc(OC)c(CSCC(=O)O)cc2S(=O)(=O)N1 (single isomer, unassigned) [45, enantiomer 1] | > 1000 nM | 28 nM
CCCCC1CN(c2ccccc2)c2cc(OC)c(CSC(C)(C)C(=O)O)cc2S(=O)(=O)N1C (single isomer, unassigned) [38, enantiomer 2] | 6.6 nM | 1600 nM
CCCCC1(C)CN(c2ccccc2)c2cc(OC)c(CSC(C)(C)C(=O)O)cc2S(=O)(=O)C1 (single isomer, unassigned) [42, enantiomer 2] | 241 nM | > 10000 nM
CCCC[C@@H]1CN(c2ccccc2)c2cc(OC)c(CSCC(=O)O)cc2S(=O)(=O)N1 [Example 51, (R)-2-(((3-butyl-7-methoxy-1,1-dioxido-5-phenyl-2,3,4,5-tetrahydro-1,2,5-benzothiadiazepin-8-yl)methyl)thio)acetic acid] | 142 nM | 2610 nM

Next, values leading:

IC50 (hLBAT) | IC50 (hIBAT) | Structure (SMILES)
362 nM | 3110 nM | CCCCC1CN(c2ccccc2)c2cc(OC)c(CSCC(=O)O)cc2S(=O)(=O)N1C (racemic) [Example 35, 2-(((3-butyl-7-methoxy-2-methyl-1,1-dioxido-5-phenyl-2,3,4,5-tetrahydro-1,2,5-benzothiadiazepin-8-yl)methyl)thio)acetic acid]
> 1000 nM | 231 nM | CCCCC1(CC)CN(c2ccccc2)c2cc(S(C)(=O)=O)c(CSCC(=O)O)cc2S(=O)(=O)N1 (single isomer, unassigned) [48, enantiomer 1]
145 nM | > 3330 nM | CCCCC1(CCCC)CN(c2ccccc2)c2cc(SC)c(CSC(C)(C)C(=O)O)cc2S(=O)(=O)N1C [Example 23, 2-(((3,3-dibutyl-2-methyl-7-(methylthio)-1,1-dioxido-5-phenyl-2,3,4,5-tetrahydro-1,2,5-benzothiadiazepin-8-yl)methyl)thio)-2-methylpropanoic acid]
> 3330 nM | 0.8 nM | CCCCC1(CCCC)CN(c2ccccc2)c2cc(SC)c(CSCC(=O)O)cc2S(=O)(=O)N1 [Example 8, 2-(((3,3-dibutyl-7-(methylthio)-1,1-dioxido-5-phenyl-2,3,4,5-tetrahydro-1,2,5-benzothiadiazepin-8-yl)methyl)thio)acetic acid]
> 3330 nM | 900 nM | CCCCC1(CCCC)CN(c2ccccc2)c2cc(SC)c(CSCC(=O)O)cc2S(=O)(=O)N1C [Example 22, 2-(((3,3-dibutyl-2-methyl-7-(methylthio)-1,1-dioxido-5-phenyl-2,3,4,5-tetrahydro-1,2,5-benzothiadiazepin-8-yl)methyl)thio)acetic acid]
155 nM | 1960 nM | CCCCC1(CC)CN(c2ccc(F)cc2)c2cc(OC)c(CSC(C)(C)C(=O)O)cc2S(=O)(=O)C1 (single isomer, unassigned) [34, enantiomer 2]
> 10000 nM | 1.4 nM | CCCCC1(CC)CN(c2ccc(F)cc2)c2cc(OC)c(CSCC(=O)O)cc2S(=O)(=O)C1 (single isomer, unassigned) [40, enantiomer 1]
> 1000 nM | 14 nM | CCCCC1(CC)CN(c2ccccc2)c2cc(S(C)(=O)=O)c(CSCC(=O)O)cc2S(=O)(=O)N1 (racemic) [Example 47, 2-(((3-butyl-3-ethyl-7-(methylsulfonyl)-1,1-dioxido-5-phenyl-2,3,4,5-tetrahydro-1,2,5-benzothiadiazepin-8-yl)methyl)thio)acetic acid]
